Assay results: patent US8906925B2, “Pyrido[4,3-B]indoles containing rigid moieties” (Medivation Technologies, Inc., priority 2008, dated 2014)
Read-outs that look alike come from different tables or passages of the source.

Key:
[1] = target: T1, rat adrenergic α1B receptor (Rattus norvegicus, UniProt P15823); assay: Adrenergic α1B radioligand binding ([3H]Prozosin); conditions: compound at 1 μM
T1 construct: from tissue; host or cells: Wistar rat liver
T1 sequence (P15823 1-515): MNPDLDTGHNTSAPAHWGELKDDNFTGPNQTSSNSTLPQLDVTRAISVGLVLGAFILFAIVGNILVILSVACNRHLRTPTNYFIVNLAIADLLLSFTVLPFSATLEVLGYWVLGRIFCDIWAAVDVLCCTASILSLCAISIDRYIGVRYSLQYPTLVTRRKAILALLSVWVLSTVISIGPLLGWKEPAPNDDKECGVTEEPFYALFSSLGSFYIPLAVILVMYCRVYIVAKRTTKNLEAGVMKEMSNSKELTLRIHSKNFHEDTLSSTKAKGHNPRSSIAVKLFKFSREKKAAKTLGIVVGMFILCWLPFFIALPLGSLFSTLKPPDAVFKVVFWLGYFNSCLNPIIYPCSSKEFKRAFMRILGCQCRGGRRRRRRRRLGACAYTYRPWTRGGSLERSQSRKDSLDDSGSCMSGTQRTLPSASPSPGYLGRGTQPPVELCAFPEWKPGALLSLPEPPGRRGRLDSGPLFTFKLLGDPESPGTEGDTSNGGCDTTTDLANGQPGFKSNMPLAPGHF
Method: To evaluate in radioligand binding assays the activity of compounds of the invention, rat adrenergic α1B receptor obtained from Wistar Rat liver (Garcia-S'ainz, J. A. et al., Biochem. Biophys. Res. Commun. 186:760, 1992; Michel A. D. et al., Br. J. Pharmacol. 98:883, 1989) in a modified Tris-HCl buffer (50 mM Tris-HCl buffer, pH 7.4, 0.5 mM EDTA) was used. Compounds of the invention were incubated with 0.25 nM [^3H]Prozosin for 60 min. at 25° C. Non-specific binding was estimated in the presence of 10 μM phentolamine. Receptor proteins were filtered and washed, the filters were then counted to determine [^3H]Prozosin specifically bound. Compounds were screened at 1 μM or lower, using 1% DMSO as vehicle. Compounds of the invention were tested in this biochemical assay and percent inhibition of specific binding was determined.

[2] = target: T2, human recombinant adrenergic α2C receptor (Homo sapiens, UniProt P18825); assay: Adrenergic α2C radioligand binding ([3H]MK-912); conditions: compound at 1 μM
T2 construct: expressed in transfected cells; host or cells: insect Sf9 cells
T2 sequence (P18825 1-462): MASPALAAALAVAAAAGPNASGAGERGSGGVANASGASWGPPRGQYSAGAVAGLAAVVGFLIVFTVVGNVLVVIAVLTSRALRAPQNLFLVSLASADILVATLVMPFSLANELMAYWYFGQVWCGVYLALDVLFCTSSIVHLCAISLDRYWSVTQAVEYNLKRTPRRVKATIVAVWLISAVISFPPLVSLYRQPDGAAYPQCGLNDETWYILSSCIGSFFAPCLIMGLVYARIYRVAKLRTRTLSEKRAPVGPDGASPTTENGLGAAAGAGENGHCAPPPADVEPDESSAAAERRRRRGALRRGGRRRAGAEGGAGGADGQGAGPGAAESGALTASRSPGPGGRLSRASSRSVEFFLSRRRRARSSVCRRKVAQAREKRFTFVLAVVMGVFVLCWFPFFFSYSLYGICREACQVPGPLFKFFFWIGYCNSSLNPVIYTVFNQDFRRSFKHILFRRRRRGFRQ
Method: To evaluate in radioligand binding assays the activity of compounds of the invention, human recombinant adrenergic α2C receptor expressed in insect Sf9 cells (Uhlen S et al. J Pharmacol Exp Ther. 271:1558, 1994) in a modified Tris-HCl buffer (50 mM Tris-HCl, pH 7.4, 12.5 mM MgCl2, 2 mM EDTA) was used. Compounds of the invention were incubated with 1 nM [^3H]MK-912 for 60 min. at 25° C. Non-specific binding was estimated in the presence of […] WB-4101. Receptor proteins were filtered and washed, the filters were then counted to determine [^3H]MK-912 specifically bound. Compounds were screened at 1 μM or lower, using 1% DMSO as vehicle. Compounds of the invention were tested in this biochemical assay and percent inhibition of specific binding was determined.

[3] = target: T3, human recombinant serotonin (5-Hydroxytryptamine) 5-HT2B receptor (Homo sapiens, UniProt P41595); assay: Serotonin 5-HT2B radioligand binding ([3H]LSD); conditions: for inhibition at 1 µM / inhibition at 0.1 µM: read-out: Inhibition of ligand binding, Serotonin 5-HT2B (percent inhibition of specific binding); for inhibition at 0.1 µM: compound at 0.1 μM
T3 construct: expressed in transfected cells; host or cells: Chinese hamster ovary (CHO-K1) cells
T3 sequence (P41595 whole entry): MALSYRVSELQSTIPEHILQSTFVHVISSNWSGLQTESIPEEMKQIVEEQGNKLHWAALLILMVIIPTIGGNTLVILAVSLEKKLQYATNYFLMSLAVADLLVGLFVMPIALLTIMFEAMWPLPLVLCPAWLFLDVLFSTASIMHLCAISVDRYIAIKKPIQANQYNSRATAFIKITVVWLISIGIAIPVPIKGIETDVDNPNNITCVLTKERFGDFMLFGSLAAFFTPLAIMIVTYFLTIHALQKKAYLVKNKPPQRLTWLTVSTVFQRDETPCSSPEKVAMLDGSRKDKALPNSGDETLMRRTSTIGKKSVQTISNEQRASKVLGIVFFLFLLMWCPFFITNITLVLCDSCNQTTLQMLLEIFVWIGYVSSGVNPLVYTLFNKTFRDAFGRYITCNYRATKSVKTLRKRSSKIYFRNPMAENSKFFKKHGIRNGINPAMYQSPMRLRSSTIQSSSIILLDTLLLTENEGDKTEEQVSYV
Method: Compounds of invention were incubated with 1.2 nM [^3H]Lysergic acid diethylamide (LSD) for 60 min. at 37° C. […] Receptor proteins were filtered and washed, the filters were then counted to determine [^3H]LSD specifically bound. Compounds were screened at 1 μM or lower, using 1% DMSO as vehicle. Compounds of the invention were tested in this biochemical assay and percent inhibition of specific binding was determined. Biochemical assay results are presented as the percent inhibition of specific binding in Table 10.

[4] = target: T4, human recombinant serotonin (5-Hydroxytryptamine) 5-HT5A receptor (Homo sapiens, UniProt P47898); assay: Serotonin 5-HT5A radioligand binding ([3H]LSD)
T4 construct: expressed in transfected cells; host or cells: Chinese hamster ovary (CHO-K1) cells
T4 sequence (P47898 whole entry): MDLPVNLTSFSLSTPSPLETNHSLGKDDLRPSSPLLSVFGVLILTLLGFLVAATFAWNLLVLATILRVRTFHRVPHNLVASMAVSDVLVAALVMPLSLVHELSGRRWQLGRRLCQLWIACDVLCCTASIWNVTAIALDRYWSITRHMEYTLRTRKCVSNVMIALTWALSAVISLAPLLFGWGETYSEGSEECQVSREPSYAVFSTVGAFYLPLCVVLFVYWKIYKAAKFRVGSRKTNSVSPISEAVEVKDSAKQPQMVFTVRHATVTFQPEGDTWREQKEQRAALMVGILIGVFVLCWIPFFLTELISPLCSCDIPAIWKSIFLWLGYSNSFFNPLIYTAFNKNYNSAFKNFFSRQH
Method: Compounds of the invention are incubated with 1.7 nM [^3H]Lysergic acid diethylamide (LSD) for 60 min. at 37° C. […] Receptor proteins are filtered and washed, the filters are counted to determine [^3H]LSD specifically bound. Compounds are screened at 1 μM or lower, using 1% DMSO as vehicle. Compounds of the invention are tested in this biochemical assay and percent inhibition of specific binding is determined.

[5] = percent inhibition of specific binding, read-out: Inhibition of ligand binding, Adrenergic α1B
[6] = percent inhibition of specific binding, read-out: Inhibition of ligand binding, Adrenergic α2C
[7] = compound at 1 μM, read-out: Inhibition of ligand binding, Serotonin 5-HT5A (percent inhibition of specific binding)
[8] = percent inhibition of specific binding, 1 µM

| SMILES | inhibition at 1 µM [1, 5] | inhibition at 1 µM [2, 6] | inhibition at 1 µM ([3]; compound at 1 μM) | inhibition at 1 µM [4, 7] | inhibition at 1 µM ([1]; read-out: Inhibition of ligand binding, Adrenergic α1B (percent inhibition of specific binding)) | inhibition at 1 µM ([2]; 1 nM [3H]MK-912, read-out: Inhibition of ligand binding, Adrenergic α2C (percent inhibition of specific binding)) | Inhibition of ligand binding, Adrenergic α1B [1, 8] | Inhibition of ligand binding, Adrenergic α2C [2, 8] | inhibition at 0.1 µM [3] | Inhibition of ligand binding, Serotonin 5-HT2B (percent inhibition of specific binding) ([3]; compound at 1 μM, 1 µM) | inhibition at 0.1 µM ([4]; compound at 0.1 μM, read-out: Inhibition of ligand binding, Serotonin 5-HT5A (percent inhibition of specific binding)) | Inhibition of ligand binding, Serotonin 5-HT5A (percent inhibition of specific binding) ([4]; compound at 1 μM, 1 µM) |
| --- | --- | --- | --- | --- | --- | --- | --- | --- | --- | --- | --- | --- |
| Cc1ccc(C(O)Cn2c3c(c4ccccc42)CN(C)CC3)cc1 (racemic) [Compound 53, racemic-2-(1,2,3,4-tetrahydro-2-methylpyrido[4,3-b]indol-5-yl)-1-p-tolylethanol] | 66% | 82% | 23% | 26% | – | – | – | – | – | – | – | – |
| CCN1CCc2c(c3ccccc3n2CC(O)c2ccc(C)cc2)C1 (racemic) [Compound 44, racemic-2-(2-ethyl-1,2,3,4-tetrahydropyrido[4,3-b]indol-5-yl)-1-p-tolylethanol] | 38% | 35% | 11% | 0% | – | – | – | – | – | – | – | – |
| Cc1ccc2c(c1)c1c(n2CC#Cc2ccccn2)CCN(C)C1 [Compound No. 500, 2,3,4,5-tetrahydro-2,8-dimethyl-5-(3-(pyridin-2-yl)prop-2-ynyl)-1H-pyrido[4,3-b]indole] | – | – | 34% | 23% | 27% | 43% | – | – | – | – | – | – |
| C/C(=C\n1c2c(c3cc(Cl)ccc31)CN(C)CC2)c1ccc(F)cc1 [Compound 83, (E)-8-chloro-5-(2-(4-fluorophenyl)prop-1-enyl)-2,3,4,5-tetrahydro-2-methyl-1H-pyrido[4,3-b]indole] | 96% | 99% | 88% | 97% | – | – | – | – | – | – | – | – |
| Cc1ccc(C(O)Cn2c3c(c4cc(C)ccc42)CN(C)CC3)cc1 (racemic) [Compound 43, racemic-2-(1,2,3,4-tetrahydro-2,8-dimethylpyrido[4,3-b]indol-5-yl)-1-p-tolylethanol] | 97% | 100% | 70% | 61% | – | – | 96% | 94% | -2% | 77% | 19% | 73% |
| CCN1CCc2c(c3cc(C)ccc3n2CC(O)c2ccc(C)cc2)C1 (racemic) [Compound 51, racemic-2-(2-ethyl-1,2,3,4-tetrahydro-8-methylpyrido[4,3-b]indol-5-yl)-1-p-tolylethanol] | 95% | 92% | 32% | 27% | – | – | – | – | 12% | – | – | – |
